Measured values: ChEMBL document CHEMBL3091273, “Sulphonamide 1,4-dithia-7-azaspiro[4,4]nonane derivatives as gelatinase A inhibitors” (Bioorg Med Chem, 2013)
Activity calls are given as the source filed them. No cut-off for these calls is given here.

Columns and labels:
Aminopeptidase N = target: T1, Aminopeptidase N (Sus scrofa, UniProt P15145); assay: Inhibition of pig kidney microsomal APN using L-Leu-p-nitroanilide as substrate preincubated for 30 mins by UV-vis spectrophotometry
T1 sequence (P15145 whole entry): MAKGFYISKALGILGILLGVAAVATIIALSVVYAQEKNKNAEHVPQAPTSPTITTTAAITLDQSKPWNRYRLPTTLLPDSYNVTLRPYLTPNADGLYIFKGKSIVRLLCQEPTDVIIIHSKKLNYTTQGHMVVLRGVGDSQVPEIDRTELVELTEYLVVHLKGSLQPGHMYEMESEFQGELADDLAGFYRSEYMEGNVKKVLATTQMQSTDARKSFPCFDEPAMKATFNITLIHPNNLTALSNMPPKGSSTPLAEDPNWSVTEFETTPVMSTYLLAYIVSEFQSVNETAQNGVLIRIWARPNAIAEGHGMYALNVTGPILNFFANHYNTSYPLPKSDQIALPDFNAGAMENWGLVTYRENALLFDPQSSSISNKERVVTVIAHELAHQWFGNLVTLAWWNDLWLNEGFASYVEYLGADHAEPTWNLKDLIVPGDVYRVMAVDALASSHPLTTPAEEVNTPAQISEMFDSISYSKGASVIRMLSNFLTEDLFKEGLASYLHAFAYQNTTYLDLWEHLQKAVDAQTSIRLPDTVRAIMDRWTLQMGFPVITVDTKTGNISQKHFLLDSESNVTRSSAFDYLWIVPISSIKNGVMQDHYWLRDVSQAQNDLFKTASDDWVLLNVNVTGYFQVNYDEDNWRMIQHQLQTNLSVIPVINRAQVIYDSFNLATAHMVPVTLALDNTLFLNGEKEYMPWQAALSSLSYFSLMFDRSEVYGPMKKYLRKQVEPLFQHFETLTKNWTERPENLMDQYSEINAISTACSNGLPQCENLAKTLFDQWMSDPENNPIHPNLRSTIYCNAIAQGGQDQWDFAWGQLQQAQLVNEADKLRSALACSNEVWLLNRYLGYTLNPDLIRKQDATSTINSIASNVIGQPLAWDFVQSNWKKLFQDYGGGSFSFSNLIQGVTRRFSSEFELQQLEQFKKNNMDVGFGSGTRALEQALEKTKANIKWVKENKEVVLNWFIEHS

[1] = target: 72 kDa type IV collagenase (Homo sapiens, UniProt P08253); assay: Inhibition of gelatinase A (unknown origin) after 30 mins by spectrophotometry
Mus musculus = assay: Toxicity in […] cells xenografted Kunming mouse assessed as change in body weight at 50 mg/kg, po administered 6 days a week for two consecutive weeks (reference value: 26.03 +/- 5.04 grams); type: organism-based; set-up: dose 50 mg/kg, route oral; conditions: in vivo, 144 h
H22 [2] = assay: Antimetastatic activity in […] cells xenografted Kunming mouse assessed as lung weight at 50 mg/kg, po administered 6 days a week for two consecutive weeks (reference value: 0.223 +/- 0.067 grams); type: functional
H22 [3] = assay: Antimetastatic activity in […] cells xenografted Kunming mouse assessed as inhibition of tumor nodules formation at 50 mg/kg, po administered 6 days a week for two consecutive weeks; type: functional; conditions: H22, 144 h
K562 = assay: Antiproliferative activity against human K562 cells after 48 hrs by MTT assay; type: functional, cell-based
SK-OV-3 = assay: Antiproliferative activity against human SKOV3 cells after 48 hrs by MTT assay; type: functional, cell-based; conditions: SK-OV-3, 48 h
HL-60 = assay: Antiproliferative activity against human HL60 cells after 48 hrs by MTT assay; type: functional, cell-based

Sequence of 72 kDa type IV collagenase (P08253 whole entry): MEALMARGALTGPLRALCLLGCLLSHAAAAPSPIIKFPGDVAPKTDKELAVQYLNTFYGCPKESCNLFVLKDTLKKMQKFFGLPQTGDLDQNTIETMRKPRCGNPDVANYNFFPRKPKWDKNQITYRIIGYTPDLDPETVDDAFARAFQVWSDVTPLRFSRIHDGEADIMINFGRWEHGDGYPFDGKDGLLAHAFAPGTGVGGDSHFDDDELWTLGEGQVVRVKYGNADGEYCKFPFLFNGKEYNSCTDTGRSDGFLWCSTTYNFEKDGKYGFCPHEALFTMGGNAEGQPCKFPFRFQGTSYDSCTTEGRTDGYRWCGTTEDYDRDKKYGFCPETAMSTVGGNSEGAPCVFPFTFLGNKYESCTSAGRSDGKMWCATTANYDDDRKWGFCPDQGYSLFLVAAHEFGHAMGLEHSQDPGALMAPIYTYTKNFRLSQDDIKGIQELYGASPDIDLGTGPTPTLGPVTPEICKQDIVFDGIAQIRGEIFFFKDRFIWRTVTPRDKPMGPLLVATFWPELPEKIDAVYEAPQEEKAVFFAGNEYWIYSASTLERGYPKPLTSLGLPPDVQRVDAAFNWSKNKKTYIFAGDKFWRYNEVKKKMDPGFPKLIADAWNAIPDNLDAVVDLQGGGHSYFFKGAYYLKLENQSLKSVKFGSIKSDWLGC

| SMILES | IC50 (Aminopeptidase N) | IC50 [1] [nM] | further results |
| --- | --- | --- | --- |
| O=C(Cc1ccccc1)NNC(=O)[C@@H]1CC2(CN1S(=O)(=O)c1ccc([N+](=O)[O-])cc1)SCCS2 | Not Active | 1800 |  |
| CCOC(=O)CNC(=O)[C@@H]1CC2(CN1S(=O)(=O)c1ccc(OC)cc1)SCCS2 | Not Active | 325 |  |
| COC(=O)[C@@H]1CC2(CN1S(=O)(=O)c1ccc(OC)cc1)SCCS2 | Not Active | 7480 |  |
| NNC(=O)[C@@H]1CC2(CN1S(=O)(=O)c1ccccc1)SCCS2 | Not Active | 6560 |  |
| COC(=O)[C@@H]1CC2(CN1S(=O)(=O)c1ccc([N+](=O)[O-])cc1)SCCS2 | Not Active | 77900 |  |
| O=C(O)[C@@H]1CC2(CN1S(=O)(=O)c1ccccc1)SCCS2 | Not Active | 28200 |  |
| O=C(NO)[C@@H]1CC2(CN1S(=O)(=O)c1ccccc1)SCCS2 | Not Active | 877 |  |
| Cc1ccc(S(=O)(=O)N2CC3(C[C@H]2C(=O)NNC(=O)Cc2ccccc2)SCCS3)cc1 | Not Active | 679 | Activity (Mus musculus): 27.9 g; Activity (H22 [2]): 0.27 g; inhibition in vivo at 50 mg/kg (H22 [3]): 34.3%; Activity (K562): inactive; IC50 (SK-OV-3): 150000 nM; Activity (HL-60): inactive |
| O=C(Cc1ccccc1)NNC(=O)[C@@H]1CC2(CN1S(=O)(=O)c1ccccc1)SCCS2 | Not Active | 5440 |  |
| Cc1ccc(S(=O)(=O)N2CC3(C[C@H]2C(=O)NO)SCCS3)cc1 | Not Active | 678 |  |
| COc1ccc(S(=O)(=O)N2CC3(C[C@H]2C(=O)NN)SCCS3)cc1 | Not Active | 10800 |  |
| NNC(=O)[C@@H]1CC2(CN1S(=O)(=O)c1ccc([N+](=O)[O-])cc1)SCCS2 | Not Active | 20600 |  |
| COC(=O)[C@@H]1CC2(CN1S(=O)(=O)c1ccc(C)cc1)SCCS2 | Not Active | 878 |  |
| COc1ccc(S(=O)(=O)N2CC3(C[C@H]2C(=O)NNC(=O)Cc2ccccc2)SCCS3)cc1 | Not Active | 386 |  |
| COc1ccc(S(=O)(=O)N2CC3(C[C@H]2C(=O)O)SCCS3)cc1 | Not Active | 9480 |  |
| COc1ccc(S(=O)(=O)N2CC3(C[C@H]2C(=O)NO)SCCS3)cc1 | Not Active | 516 |  |
| CCOC(=O)CNC(=O)[C@@H]1CC2(CN1S(=O)(=O)c1ccc([N+](=O)[O-])cc1)SCCS2 | Not Active | 325 |  |
| O=C(NO)[C@@H]1CC2(CN1S(=O)(=O)c1ccc([N+](=O)[O-])cc1)SCCS2 | Not Active | 786 |  |
| COc1ccc(/C=C/C(=O)N2CC(NC(=O)c3cccnc3)CC2C(=O)NO)cc1OC (configuration not stated) | Not Active | 1020 |  |
| O=C(O)[C@@H]1CC2(CN1S(=O)(=O)c1ccc([N+](=O)[O-])cc1)SCCS2 | Not Active | 835 | Activity (Mus musculus): 25.59 g; Activity (H22 [2]): 0.288 g; inhibition in vivo at 50 mg/kg (H22 [3]): 26.3%; Activity (K562): inactive; IC50 (SK-OV-3): 210000 nM; Activity (HL-60): inactive |
| CCOC(=O)CNC(=O)[C@@H]1CC2(CN1S(=O)(=O)c1ccc(C)cc1)SCCS2 | Not Active | 530 |  |
| COC(=O)[C@@H]1CC2(CN1S(=O)(=O)c1ccccc1)SCCS2 | Not Active | 3090 |  |
| Cc1ccc(S(=O)(=O)N2CC3(C[C@H]2C(=O)NN)SCCS3)cc1 | Not Active | 429000 |  |
| Cc1ccc(S(=O)(=O)N2CC3(C[C@H]2C(=O)O)SCCS3)cc1 | Not Active | 2780 |  |
| CCOC(=O)CNC(=O)[C@@H]1CC2(CN1S(=O)(=O)c1ccccc1)SCCS2 | Not Active | 678 |  |
